Data published in patent US7825256B2, “Inducible nitric oxide synthase dimerization inhibitors” (Kalypsys, Inc., priority 2004, dated 2010).
pEC50: −log10 of the molar value.

Key:
heNOS = target: T1, heNOS (Homo sapiens, UniProt P29474); assay: DAN assay, heNOS expressed in transiently transfected HEK293 cells; type: cell-based; conditions: HEK293 cells transiently transfected with heNOS
T1 construct: expressed in transfected cells; host or cells: HEK293
T1 sequence (P29474 2-1203 limits assumed): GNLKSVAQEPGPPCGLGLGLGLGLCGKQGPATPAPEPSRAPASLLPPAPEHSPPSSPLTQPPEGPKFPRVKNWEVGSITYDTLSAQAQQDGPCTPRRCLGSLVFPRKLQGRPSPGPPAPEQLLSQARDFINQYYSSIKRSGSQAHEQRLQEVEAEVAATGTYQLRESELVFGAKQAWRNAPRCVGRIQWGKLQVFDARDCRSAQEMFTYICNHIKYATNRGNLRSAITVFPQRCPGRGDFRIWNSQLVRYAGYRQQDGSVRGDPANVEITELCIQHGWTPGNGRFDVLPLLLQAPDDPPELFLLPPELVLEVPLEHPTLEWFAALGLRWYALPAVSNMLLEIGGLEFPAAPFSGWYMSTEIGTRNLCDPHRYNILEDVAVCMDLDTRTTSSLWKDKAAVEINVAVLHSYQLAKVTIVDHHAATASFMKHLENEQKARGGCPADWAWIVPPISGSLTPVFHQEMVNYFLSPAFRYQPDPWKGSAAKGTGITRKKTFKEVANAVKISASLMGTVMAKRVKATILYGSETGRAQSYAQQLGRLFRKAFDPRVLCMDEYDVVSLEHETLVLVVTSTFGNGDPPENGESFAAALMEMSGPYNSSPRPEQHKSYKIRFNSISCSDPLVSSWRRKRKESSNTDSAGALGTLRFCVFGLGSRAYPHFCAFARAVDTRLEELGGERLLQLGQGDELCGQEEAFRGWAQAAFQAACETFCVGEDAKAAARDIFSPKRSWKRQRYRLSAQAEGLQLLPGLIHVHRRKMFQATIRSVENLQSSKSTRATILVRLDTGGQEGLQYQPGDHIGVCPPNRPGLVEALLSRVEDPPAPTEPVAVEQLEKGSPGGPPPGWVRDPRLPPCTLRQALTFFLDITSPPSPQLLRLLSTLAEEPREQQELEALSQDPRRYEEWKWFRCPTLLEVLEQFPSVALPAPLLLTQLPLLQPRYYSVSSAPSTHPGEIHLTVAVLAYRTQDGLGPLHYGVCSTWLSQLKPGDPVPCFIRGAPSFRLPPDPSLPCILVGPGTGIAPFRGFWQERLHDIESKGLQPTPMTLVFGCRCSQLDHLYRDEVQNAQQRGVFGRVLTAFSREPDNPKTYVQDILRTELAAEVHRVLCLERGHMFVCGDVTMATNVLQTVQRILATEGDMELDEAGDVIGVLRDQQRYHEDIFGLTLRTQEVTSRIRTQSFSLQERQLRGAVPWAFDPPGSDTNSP
From the text: (§1) The source of nitric oxide synthase (NOS) enzyme can be generated in several ways including induction of endogenous iNOS using cytokines and/or lipopolysaccharide (LPS) in various cell types known in the art. Alternatively, the gene encoding the enzyme can be cloned and the enzyme can be generated in cells via heterologous expression from a transient or stable expression plasmid with suitable features for protein expression as are known in the art. Enzymatic activity (nitric oxide production) is calcium independent for iNOS, while the constitutive NOS isoforms, nNOS and eNOS, become active with the addition of various cofactors added to cellular media or extract as are well known in the art. Enzymes specified in Table 1 were expressed in HEK293 cells transiently transfected with the indicated NOS isoform.
(§2) A major metabolic pathway for nitric oxide is to nitrate and nitrite, which are stable metabolites within tissue culture, tissue, plasma, and urine (S Moncada, A Higgs, N Eng J Med 329, 2002 (1993)).
(§3) The level of nitrate or nitrite in the specimen can be quantified by any method known in the art which provides adequate sensitivity and reproducibility. A variety of protocols have also been described for detecting and quantifying nitrite and nitrate levels in biological fluids by ion chromatography (e.g., S A Everett et al., J. Chromatogr. 706, 437 (1995); J M Monaghan et al., J. Chromatogr. 770, 143 (1997)), high-performance liquid chromatography (e.g., M Kelm et al., Cardiovasc. Res. 41, 765 (1999)), and capillary electrophoresis (M A Friedberg et al., J. Chromatogr. 781, 491 (1997)). […] Using 2,3-diaminonaphthalene (“DAN”), researchers have developed a rapid, quantitative fluorometric assay that can detect from 10 nM to 10 μM nitrite and is compatible with a multi-well microplate format. […]
(§4) A specimen can be processed prior to determination of nitrate or nitrite as required by the quantification method, or in order to improve the results, or for the convenience of the investigator. […]

hnNOS = target: T2, hnNOS (Homo sapiens, UniProt P29475); assay: DAN assay, hnNOS expressed in transiently transfected HEK293 cells; type: cell-based; conditions: HEK293 cells transiently transfected with hnNOS
T2 construct: expressed in transfected cells; host or cells: HEK293
From the text: as §1, §2, §3, §4

T2 sequence (P29475 whole entry): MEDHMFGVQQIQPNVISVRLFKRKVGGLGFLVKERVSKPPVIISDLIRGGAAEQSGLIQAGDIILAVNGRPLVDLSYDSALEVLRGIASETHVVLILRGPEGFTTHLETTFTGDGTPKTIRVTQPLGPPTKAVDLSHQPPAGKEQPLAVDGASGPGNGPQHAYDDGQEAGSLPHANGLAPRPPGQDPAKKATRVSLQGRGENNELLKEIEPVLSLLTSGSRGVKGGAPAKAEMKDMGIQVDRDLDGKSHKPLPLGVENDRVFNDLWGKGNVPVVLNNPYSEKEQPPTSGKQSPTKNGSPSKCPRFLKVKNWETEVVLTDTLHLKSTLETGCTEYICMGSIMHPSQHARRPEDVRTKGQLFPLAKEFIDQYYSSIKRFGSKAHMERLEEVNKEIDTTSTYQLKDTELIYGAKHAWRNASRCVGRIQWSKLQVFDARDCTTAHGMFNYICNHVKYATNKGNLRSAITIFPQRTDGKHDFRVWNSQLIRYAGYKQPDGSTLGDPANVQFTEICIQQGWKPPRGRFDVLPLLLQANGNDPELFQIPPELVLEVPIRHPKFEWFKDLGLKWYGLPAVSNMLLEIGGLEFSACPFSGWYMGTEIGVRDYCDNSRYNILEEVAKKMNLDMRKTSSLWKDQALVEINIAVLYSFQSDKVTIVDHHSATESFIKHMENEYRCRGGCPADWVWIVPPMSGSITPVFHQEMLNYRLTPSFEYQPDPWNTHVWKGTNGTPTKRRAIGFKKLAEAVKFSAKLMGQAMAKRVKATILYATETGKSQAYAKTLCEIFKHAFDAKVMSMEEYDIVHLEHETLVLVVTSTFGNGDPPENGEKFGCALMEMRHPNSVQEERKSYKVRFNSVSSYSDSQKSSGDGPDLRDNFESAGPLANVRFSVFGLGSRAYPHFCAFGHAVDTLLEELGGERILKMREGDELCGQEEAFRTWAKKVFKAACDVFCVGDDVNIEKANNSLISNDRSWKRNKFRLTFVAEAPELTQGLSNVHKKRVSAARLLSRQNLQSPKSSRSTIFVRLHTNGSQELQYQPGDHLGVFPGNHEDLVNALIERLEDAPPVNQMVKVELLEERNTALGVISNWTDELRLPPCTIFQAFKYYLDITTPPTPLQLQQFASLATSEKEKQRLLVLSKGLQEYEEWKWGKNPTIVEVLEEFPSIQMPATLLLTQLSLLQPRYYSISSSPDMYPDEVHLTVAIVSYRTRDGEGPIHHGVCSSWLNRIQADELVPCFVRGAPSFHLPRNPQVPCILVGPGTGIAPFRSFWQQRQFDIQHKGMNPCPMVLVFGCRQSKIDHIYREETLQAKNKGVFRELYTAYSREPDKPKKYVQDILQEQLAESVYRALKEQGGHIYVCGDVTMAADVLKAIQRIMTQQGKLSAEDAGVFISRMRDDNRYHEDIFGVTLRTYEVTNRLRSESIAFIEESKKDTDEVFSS

Cc1cc(C2CCCN2C(=O)NCCc2ccc3c(c2)OCO3)nc(-n2ccnc2)n1 (stereo not drawn) [Example 4, 2-(2-Imidazol-1-yl-6-methyl-pyrimidin-4-yl)-pyrrolidine-1-carboxylic acid (2-benzo[1,3]dioxol-5-yl-ethyl)-amide]
pEC50 (heNOS): < 5.00
pEC50 (hnNOS): 6.15

Cc1cc(C2CCCN2C(=O)CNCc2ccc3c(c2)OCO3)nc(-n2ccnc2)n1 (stereo not drawn) [Example 5]
pEC50 (heNOS): < 5.00
pEC50 (hnNOS): < 6.00

CN(CCCNCc1ccc2c(c1)OCO2)c1nc(-n2ccnc2)ns1 [Example 2, N′-Benzo[1,3]dioxol-5-ylmethyl-N-(3-imidazol-1-yl-[1,2,4]thiadiazol-5-yl)-N-methyl-propane-1,3-diamine]
pEC50 (heNOS): < 5.00
pEC50 (hnNOS): < 6.00
